Organism: Rattus norvegicus
Assay: DrugMatrix - Regimen: Daily Repeat
Format: toxicity, organism-based, Sprague-Dawley
Set-up: regimen Daily Repeat, gender Male, age 6-8 weeks
Conditions: in vivo, po, 1200 mg/kg, route oral GAVAGE, dose level High, vehicle 100 % WATER; for ALANINE AMINOTRANSFERASE / ALBUMIN / ALKALINE PHOSPHATASE / ASPARTATE AMINOTRANSFERASE / BLOOD UREA NITROGEN / CARBON DIOXIDE / CHLORIDE / CHOLESTEROL / CREATINE PHOSPHOKINASE / CREATININE / GLUCOSE / LACTATE DEHYDROGENASE / LIPASE / PHOSPHORUS / POTASSIUM / SODIUM / TOTAL BILIRUBIN / TOTAL PROTEIN / URIC ACID: tissue Plasma
[1] = 120 h, tissue Blood, time 5 day

In the case of `COCCc1ccc(OCC(O)CNC(C)C)cc1` (configuration not stated) [METOPROLOL], the “ABSOLUTE SEGMENTED NEUTROPHIL” value (72 h, tissue Blood, time 3 day) is reported as 909.67 CELLS/uL, the BASOPHIL (72 h, tissue Blood, time 3 day) is reported as 0% and the EOSINOPHIL (72 h, tissue Blood, time 3 day) is reported as 2.33%. The “ERYTHROCYTE COUNT” value (72 h, tissue Blood, time 3 day) was 5.22 x10E6/uL, the HEMATOCRIT (72 h, tissue Blood, time 3 day) was 33.73% and the HEMOGLOBIN (72 h, tissue Blood, time 3 day) was 12.8 G/DL. For the same compound, the “LEUKOCYTE COUNT” value (72 h, tissue Blood, time 3 day) was 12.47 x10E3/uL, the LYMPHOCYTE (72 h, tissue Blood, time 3 day) was 90.33% and the “MEAN CORPUSCULAR HEMOGLOBIN” value (72 h, tissue Blood, time 3 day) was 24.57 pg. The “MEAN CORPUSCULAR HEMOGLOBIN CONCENTRATION” value (72 h, tissue Blood, time 3 day) was 37.93 G/DL, the “MEAN CORPUSCULAR VOLUME” value (72 h, tissue Blood, time 3 day) was 64.7 fL and the MONOCYTE (72 h, tissue Blood, time 3 day) was 0%. For the same compound, the NEUTROPHIL (72 h, tissue Blood, time 3 day) was 7.33%, the “NUCLEATED RED BLOOD CELLS” value (72 h, tissue Blood, time 3 day) was 0 /100WBC and the “PLATELET COUNT” value (72 h, tissue Blood, time 3 day) was 1290.67 x10E3/uL. The “ALANINE AMINOTRANSFERASE” value (72 h, time 3 day) was 53.67 u/L, the ALBUMIN (72 h, time 3 day) was 3.87 G/DL and the “ALKALINE PHOSPHATASE” value (72 h, time 3 day) was 394 u/L. For the same compound, the “ASPARTATE AMINOTRANSFERASE” value (72 h, time 3 day) was 71 u/L, the “BLOOD UREA NITROGEN” value (72 h, time 3 day) was 17.33 mg/dL and the “CARBON DIOXIDE” value (72 h, time 3 day) was 22.33 mmol/L. The CHLORIDE (72 h, time 3 day) was 107.33 MEQ/L, the CHOLESTEROL (72 h, time 3 day) was 61.67 mg/dL and the “CREATINE PHOSPHOKINASE” value (72 h, time 3 day) was 205.67 u/L. The CREATININE (72 h, time 3 day) was 0.14 mg/dL, the GLUCOSE (72 h, time 3 day) was 163.67 mg/dL and the “LACTATE DEHYDROGENASE” value (72 h, time 3 day) was 229 u/L. For the same compound, the LIPASE (72 h, time 3 day) was 8 u/L, the PHOSPHORUS (72 h, time 3 day) was 13.37 mg/dL and the POTASSIUM (72 h, time 3 day) was 7.13 MEQ/L. The SODIUM (72 h, time 3 day) was 143.6 MEQ/L, the “TOTAL BILIRUBIN” value (72 h, time 3 day) was 0.2 mg/dL and the “TOTAL PROTEIN” value (72 h, time 3 day) was 5.57 G/DL. The “URIC ACID” value (72 h, time 3 day) was 1.77 mg/dL, the “ABSOLUTE BASOPHIL” value [1] was 0 CELLS/uL and the “ABSOLUTE EOSINOPHIL” value [1] was 118 CELLS/uL. The “ABSOLUTE LYMPHOCYTE” value [1] was 10653.33 CELLS/uL, the “ABSOLUTE MONOCYTE” value [1] was 40.33 CELLS/uL and the “ABSOLUTE SEGMENTED NEUTROPHIL” value [1] was 1388.33 CELLS/uL. For the same compound, the BASOPHIL [1] was 0%, the EOSINOPHIL [1] was 1% and the “ERYTHROCYTE COUNT” value [1] was 5.92 x10E6/uL. For the same compound, the HEMATOCRIT [1] was 35.9%, the HEMOGLOBIN [1] was 13.47 G/DL and the “LEUKOCYTE COUNT” value [1] was 12.2 x10E3/uL. For the same compound, the LYMPHOCYTE [1] was 87.33%, the “MEAN CORPUSCULAR HEMOGLOBIN” value [1] was 22.77 pg and the “MEAN CORPUSCULAR HEMOGLOBIN CONCENTRATION” value [1] was 37.5 G/DL. For the same compound, the “MEAN CORPUSCULAR VOLUME” value [1] was 60.63 fL, the MONOCYTE [1] was 0.33% and the NEUTROPHIL [1] was 11.33%. The “NUCLEATED RED BLOOD CELLS” value [1] was 0 /100WBC, the “PLATELET COUNT” value [1] was 1269 x10E3/uL and the “ALANINE AMINOTRANSFERASE” value (120 h, time 5 day) was 41.67 u/L. For the same compound, the ALBUMIN (120 h, time 5 day) was 4 G/DL, the “ALKALINE PHOSPHATASE” value (120 h, time 5 day) was 311.67 u/L and the “ASPARTATE AMINOTRANSFERASE” value (120 h, time 5 day) was 79 u/L. For the same compound, the “BLOOD UREA NITROGEN” value (120 h, time 5 day) was 16 mg/dL, the “CARBON DIOXIDE” value (120 h, time 5 day) was 25 mmol/L and the CHLORIDE (120 h, time 5 day) was 102.33 MEQ/L. The CHOLESTEROL (120 h, time 5 day) was 50.67 mg/dL, the “CREATINE PHOSPHOKINASE” value (120 h, time 5 day) was 364.33 u/L and the CREATININE (120 h, time 5 day) was 0.21 mg/dL. The GLUCOSE (120 h, time 5 day) was 161.33 mg/dL, the “LACTATE DEHYDROGENASE” value (120 h, time 5 day) was 430 u/L and the LIPASE (120 h, time 5 day) was 8 u/L. The PHOSPHORUS (120 h, time 5 day) was 11.67 mg/dL, the POTASSIUM (120 h, time 5 day) was 6.24 MEQ/L and the SODIUM (120 h, time 5 day) was 141.53 MEQ/L. The “TOTAL BILIRUBIN” value (120 h, time 5 day) was 0.2 mg/dL, the “TOTAL PROTEIN” value (120 h, time 5 day) was 5.6 G/DL and the “URIC ACID” value (120 h, time 5 day) was 1.73 mg/dL.

— ChEMBL document CHEMBL3885881, “DrugMatrix”
